In this assay the target is T1, Calcium Channel (3H-nitrendipine binding site, heart membranes) (Oryctolagus cuniculus, UniProt P15381).
T1 construct: from tissue; host or cells: rabbit heart membrane preparation
Description: Assay for Inhibition of Nitrendipine Binding (3H-nitrendipine, rabbit heart membranes). Conditions: 3H-nitrendipine 0.05-0.50 nM, 90 minutes. The method, then: Female, New Zealand white rabbits (1-2 kg) are sacrificed by cervical dislocation, and the heart is immediately removed, cleaned and chopped into small pieces. The tissue is homogenized in 5× times volume of 0.05M Hepes buffer, pH 7.4. The homogenate is centrifuged at 4000g for 10 minutes, and the supernatant is re-centrifuged at 42,000× g for 90 minutes. The resulting membrane pellet is resuspended (0.7 ml/g weight) in 0.05M Hepes, pH 7.4 and stored at […] until used. Each tube of the binding assay contains ^3H-nitrendipine (0.05-0.50 nM), buffer, membranes (0.10 ml), and test compound in a total volume of 1.0 ml. After 90 minutes at 4≦ C., the bound nitrendipine is separated from the unbound by filtration on Whatman GF/C filters. After rinsing, the filters are dried and counted in a liquid scintillation counter.
Non-specific binding of ^3H-nitrendipine (that amount bound in the presence of excess unlabelled nitrendipine) is subtracted from the total bound to obtain specifically bound radiolabeled nitrendipine. The amount of specifically bound nitrendipine in the presence of a test compound is compared to that amount bound in the absence of a compound. A percent displacement (or inhibition) can then be calculated.

T1 sequence (P15381 whole entry): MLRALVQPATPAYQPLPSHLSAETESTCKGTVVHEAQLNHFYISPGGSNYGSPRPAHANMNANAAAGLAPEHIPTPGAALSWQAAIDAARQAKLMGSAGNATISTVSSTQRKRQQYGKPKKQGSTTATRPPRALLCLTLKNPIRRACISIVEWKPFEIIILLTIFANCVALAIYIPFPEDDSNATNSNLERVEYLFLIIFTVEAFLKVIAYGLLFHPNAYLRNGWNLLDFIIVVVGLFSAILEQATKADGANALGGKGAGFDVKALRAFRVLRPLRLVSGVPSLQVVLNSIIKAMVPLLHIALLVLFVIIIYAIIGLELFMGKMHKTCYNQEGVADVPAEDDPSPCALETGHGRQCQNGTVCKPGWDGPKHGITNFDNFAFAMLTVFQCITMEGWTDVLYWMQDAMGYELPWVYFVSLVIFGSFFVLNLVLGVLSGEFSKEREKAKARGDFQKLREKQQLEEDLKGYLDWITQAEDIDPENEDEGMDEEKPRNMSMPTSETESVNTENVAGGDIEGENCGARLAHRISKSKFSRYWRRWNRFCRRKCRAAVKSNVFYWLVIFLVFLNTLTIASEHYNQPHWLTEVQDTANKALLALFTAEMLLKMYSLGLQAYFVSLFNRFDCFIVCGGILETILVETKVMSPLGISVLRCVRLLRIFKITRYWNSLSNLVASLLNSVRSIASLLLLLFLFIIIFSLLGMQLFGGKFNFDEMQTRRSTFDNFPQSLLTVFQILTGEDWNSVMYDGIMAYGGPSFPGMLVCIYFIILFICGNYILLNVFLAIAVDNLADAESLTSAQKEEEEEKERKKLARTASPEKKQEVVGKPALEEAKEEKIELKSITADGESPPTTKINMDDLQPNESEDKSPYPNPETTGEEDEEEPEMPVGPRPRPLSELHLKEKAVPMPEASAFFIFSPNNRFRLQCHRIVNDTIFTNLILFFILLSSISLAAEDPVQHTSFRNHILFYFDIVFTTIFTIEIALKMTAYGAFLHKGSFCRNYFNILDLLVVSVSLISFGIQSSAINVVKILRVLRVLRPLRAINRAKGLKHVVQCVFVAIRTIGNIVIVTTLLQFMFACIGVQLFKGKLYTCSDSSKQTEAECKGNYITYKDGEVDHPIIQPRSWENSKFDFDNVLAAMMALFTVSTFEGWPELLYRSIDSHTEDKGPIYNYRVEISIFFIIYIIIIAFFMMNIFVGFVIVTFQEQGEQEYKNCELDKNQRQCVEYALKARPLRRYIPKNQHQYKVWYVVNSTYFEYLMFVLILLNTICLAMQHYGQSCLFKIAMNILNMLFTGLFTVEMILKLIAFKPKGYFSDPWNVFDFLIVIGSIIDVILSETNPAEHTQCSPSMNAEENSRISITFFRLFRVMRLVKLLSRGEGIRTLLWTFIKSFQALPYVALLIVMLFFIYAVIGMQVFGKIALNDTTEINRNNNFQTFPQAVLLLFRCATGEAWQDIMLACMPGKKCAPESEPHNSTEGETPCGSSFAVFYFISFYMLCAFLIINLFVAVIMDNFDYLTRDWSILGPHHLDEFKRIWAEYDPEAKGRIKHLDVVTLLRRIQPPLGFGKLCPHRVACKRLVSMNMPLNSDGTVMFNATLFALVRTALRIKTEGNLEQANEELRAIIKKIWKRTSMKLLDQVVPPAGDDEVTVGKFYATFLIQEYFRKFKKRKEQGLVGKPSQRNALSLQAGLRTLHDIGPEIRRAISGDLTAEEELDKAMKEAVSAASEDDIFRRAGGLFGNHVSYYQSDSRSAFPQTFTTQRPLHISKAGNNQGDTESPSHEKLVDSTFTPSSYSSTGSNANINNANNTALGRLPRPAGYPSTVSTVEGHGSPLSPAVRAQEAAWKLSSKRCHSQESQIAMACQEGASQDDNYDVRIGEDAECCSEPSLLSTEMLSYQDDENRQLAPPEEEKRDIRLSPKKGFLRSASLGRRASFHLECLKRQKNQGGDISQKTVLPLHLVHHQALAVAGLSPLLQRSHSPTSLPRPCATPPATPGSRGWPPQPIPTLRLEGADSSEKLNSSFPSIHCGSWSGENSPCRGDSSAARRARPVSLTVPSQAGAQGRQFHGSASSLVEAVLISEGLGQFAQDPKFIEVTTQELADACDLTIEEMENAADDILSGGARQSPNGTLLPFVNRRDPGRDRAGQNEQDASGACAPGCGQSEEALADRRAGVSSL

For `CC1=C(C(=O)OCCOC(=O)c2cccnc2)C(c2c(F)cccc2Cl)C2=C(CS(=O)(=O)CCS2(=O)=O)N1` (centres unmarked) [Compound 44], the IC50 (usually the concentration that gives 50% inhibition) (Table 1, Formula Ii compounds) was found to be 505 nM.
Still for that read-out and setting: as for `CC1=C(C(=O)OCCOC(=O)C(C)C)C(c2c(F)cccc2Cl)C2=C(CS(=O)(=O)CCS2(=O)=O)N1` (centres unmarked) [Compound 56], the figure is 2320 nM; as for `CC1=C(C(=O)OCCOC(=O)c2cccc(C#N)c2)C(c2c(F)cccc2Cl)C2=C(CS(=O)(=O)CCS2(=O)=O)N1` (centres unmarked) [Compound 18], 61 nM.
As for `CC1=C(C(=O)OCCOC(=O)C2CCOC2=O)C(c2c(F)cccc2Cl)C2=C(CS(=O)(=O)CCS2(=O)=O)N1` (centres unmarked) [Compound 62], the IC50 (Table 1, Formula Ii compounds) was 19400 nM.
The same measure, in the same setting: as for `CC1=C(C(=O)OCCOC(=O)CCN2CCCCC2)C(c2c(F)cccc2Cl)C2=C(CS(=O)(=O)CCS2(=O)=O)N1` (centres unmarked) [Compound 63], the figure is 49000 nM.
On the same count and under the same terms, with `CC1=C(C(=O)OCCOC(=O)C(CCCCNC(=O)OCc2ccccc2)NC(=O)OC(C)(C)C)C(c2c(F)cccc2Cl)C2=C(CS(=O)(=O)CCS2(=O)=O)N1` (centres unmarked) [Compound 29] the figure was 175 nM; with `CC1=C(C(=O)OCCOC(=O)C(NC(=O)OC(C)(C)C)C(C)C)C(c2c(F)cccc2Cl)C2=C(CS(=O)(=O)CCS2(=O)=O)N1` (centres unmarked) [Compound 40], 405 nM; with `CC1=C(C(=O)OCCOC(=O)CCc2ccccc2)C(c2c(F)cccc2Cl)C2=C(CS(=O)(=O)CCS2(=O)=O)N1` (centres unmarked) [Compound 12], 48 nM.
In the case of `CC1=C(C(=O)OCCOC(=O)c2ccc(C(F)(F)F)cc2)C(c2c(F)cccc2Cl)C2=C(CS(=O)(=O)CCS2(=O)=O)N1` (centres unmarked) [Compound 11, 5H-[1,4]dithiepino[6,5-b]pyridine-8-carboxylic acid, 9-(2-chloro-6-fluorophenyl)-2,3,6,9-tetrahydro-7-methyl-, 2-[[4-(trifluoromethyl)benzoyl]oxy]ethyl ester, 1,1,4,4-tetraoxide], where the note is “Table 1, Formula Ii compounds”, the IC50 is 48 nM.
For the compound `CC1=C(C(=O)OCCOC(=O)c2cccc(C#N)c2)C(c2c(F)cccc2Cl)C2=C(CS(=O)(=O)CCCS2(=O)=O)N1` (centres unmarked) [Compound 68, 2H,6H-[1,5]dithiocino[3,2-b]pyridine-9-carboxylic acid, 10-(2-chloro-6-fluorophenyl)-3,4,7,10-tetrahydro-8-methyl-, 2-[(3-cyanobenzoyl)oxy]ethyl ester, 1,1,5,5-tetraoxide], the 50% inhibitory concentration (IC50) (Table 2, Formula Ij compounds) was determined as 49 nM.
Take `CC1=C(C(=O)OCCOC(=O)C(Cc2ccccc2)NC(=O)c2ccccc2)C(c2c(F)cccc2Cl)C2=C(CS(=O)(=O)CCS2(=O)=O)N1` (centres unmarked) [Compound 38]: the IC50 (Table 1, Formula Ii compounds) stood at 358 nM.
`CC1=C(C(=O)OC2CCOC2=O)C(c2cccc(Cl)c2Cl)C2=C(CS(=O)(=O)CCS2(=O)=O)N1` (centres unmarked) [Compound 43]: the IC50 (Table 1, Formula Ii compounds) came to 456 nM.
Same read-out and setting: with `CC1=C(C(=O)OCCOC(=O)C(Cc2ccccc2)N(C)C)C(c2c(F)cccc2Cl)C2=C(CS(=O)(=O)CCS2(=O)=O)N1` (centres unmarked) [Compound 45] the figure was 541 nM; with `CC1=C(C(=O)OCCOC(=O)C(N)CCCCN)C(c2c(F)cccc2Cl)C2=C(CS(=O)(=O)CCS2(=O)=O)N1` (single isomer, unassigned) [Compound 64], 51000 nM; with `COc1ccc(C(=O)OCCOC(=O)C2=C(C)NC3=C(C2c2c(F)cccc2Cl)S(=O)(=O)CCS(=O)(=O)C3)cc1` (centres unmarked) [Compound 20], 69 nM.
`CC1=C(C(=O)OCc2oc(=O)oc2C)C(c2cccc(Cl)c2Cl)C2=C(CS(=O)(=O)CCS2(=O)=O)N1` (centres unmarked) [Compound 21]: the IC50 (Table 1, Formula Ii compounds) was 72 nM.
As to `CC1=C(C(=O)OCCOC(=O)C2CCCCC2)C(c2c(F)cccc2Cl)C2=C(CS(=O)(=O)CCCS2(=O)=O)N1` (centres unmarked) [Compound 70, 2H,6H-[1,5]dithiocino[3,2-b]pyridine-9-carboxylic acid, 10-(2-chloro-6-fluorophenyl)-3,4,7,10-tetrahydro-8-methyl-, 2-[(cyclohexylcarbonyl)oxy]ethyl ester, 1,1,5,5-tetraoxide], the IC50 (Table 2, Formula Ij compounds) was 65 nM.
